Laboratory results from patent US10718761B2, “Phosphatase or kinase activity detection composition and detection method” (INDUSTRY-UNIVERSITY COOPERATION FOUNDATION HANYANG …, priority 2014, dated 2020).

System: TAMRA-PEPPKA(p)
Test: Zn(II)-mediated QD-FRET between QD525 and TAMRA-labelled phosphopeptide
Assay type: binding
Conditions: QD 2 nM
Method: A synthetic peptide substrate labeled with 5(6)-carboxytetramethylrhodamine at the N-terminus (TAMRA-LRRASLG; TAMRA-PEPPKA) was compared with its phosphorylated form (TAMRA-LRRApSLG; TAMRA-PEPPKA(p)) (FIG. 12B). The FRET ratio was determined by the acceptor (FA) emission area (integrated from 550 to 650 nm) relative to the donor (FD) emission area (integrated from 450 to 550 nm). The concentrations of QD, TAMRA-PEPPKA(p) (or TAMRA-PEPPKA), and ZnCl2 were 2 nM, 80 nM and 100 μM, respectively. The QD-FRET spectra were obtained at an excitation wavelength of 380 nm.
The change in FRET between QD and TAMRA-PEPPKA(p) according to a function of Zn^2+ concentration was calculated. Furthermore, the relative FRET percentage was calculated by dividing the experimental FRET ratio by the maximal FRET ratio (0.74). The concentrations of QD and TAMRA-PEPPKA(p) were 2 nM and 80 nM, respectively. Excitation/emission wavelengths of QD-FRET (FIG. 12C (i)), QD (FIG. 12C (ii)), and TAMRA-PEPPKA(p) (FIG. 12C (iii)) were obtained at 380/580, 380/525, 530/580 nm, respectively.

[Cl-].[Cl-].[Zn+2] [Zn(II), ZnCl2]
FRET ratio (FA/FD) (TAMRA-PEPPKA(p) 80 nM, ZnCl2 100 μM, excitation 380 nm): 0.65
Kd (free Zn(II) ions, TAMRA-PEPPKA(p) 80 nM (1:40 molar ratio), read-out: binding affinity Kd for TAMRA-PEPPKA(p), based on the FRET efficiency): 8.8 µM
